Experimental data as given in the supplement of paper PMC10883282.

Key:
Experiment in all cases: relative viability vs DMSO control (72 h) (fraction); higher = more viable cells
SK-LMS-1 = test system: SK-LMS-1
How it was run: (§1)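 Sarcoma cell lines were seeded in 384-well plates at densities chosen for 80–90% confluence, then 24 h later given 2.5 µl of serially diluted compound drawn from source plates spanning 10 mM to 0.0002 mM. They were held 72 h at 37 °C, 5% CO2, with 0.1% DMSO vehicle and a 5 µM positive control included. Relative viability was read with ATPLite as percent growth and averaged over up to triplicate wells. Rescaling placed full at 1 and none at 0.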

G401 = test system: G401
How it was run: as §1

RD-ES = test system: RD-ES
How it was run: as §1

KHOS-NP = test system: KHOS-NP
How it was run: as §1

SW872 = test system: SW872
How it was run: as §1

MES-SA = test system: MES-SA
How it was run: as §1

VA-ES-BJ = test system: VA-ES-BJ
How it was run: as §1

SW1353 = test system: SW1353
How it was run: as §1

HT1080 = test system: HT1080
How it was run: as §1

RD = test system: RD
How it was run: as §1

SW684 = test system: SW684
How it was run: as §1

SK-ES-1 = test system: SK-ES-1
How it was run: as §1

O=C(Nc1ccc(OC(F)(F)Cl)cc1)c1cnc(N2CC[C@@H](O)C2)c(-c2cc[nH]n2)c1 [Asciminib]
Details	relative viability
G401, 0.00017 µM	0.949
G401, 0.00051 µM	0.921
G401, 0.00152 µM	0.928
G401, 0.00457 µM	0.967
G401, 0.01372 µM	0.961
G401, 0.04115 µM	0.981
G401, 0.1235 µM	0.981
G401, 0.3704 µM	0.99
G401, 1.111 µM	0.9822
G401, 3.333 µM	0.909
G401, 10 µM	0.831
HT1080, 0.00017 µM	0.999
HT1080, 0.00051 µM	1.06
HT1080, 0.00152 µM	1
HT1080, 0.00457 µM	0.999
HT1080, 0.01372 µM	0.968
HT1080, 0.04115 µM	1
HT1080, 0.1235 µM	1.03
HT1080, 0.3704 µM	1
HT1080, 1.111 µM	0.998
HT1080, 3.333 µM	0.978
HT1080, 10 µM	0.916
KHOS-NP, 0.00017 µM	1.04
KHOS-NP, 0.00051 µM	1.06
KHOS-NP, 0.00152 µM	1.06
KHOS-NP, 0.00457 µM	1.04
KHOS-NP, 0.01372 µM	1.061
KHOS-NP, 0.04115 µM	1.04
KHOS-NP, 0.1235 µM	1.06
KHOS-NP, 0.3704 µM	1.025
KHOS-NP, 1.111 µM	0.998
KHOS-NP, 3.333 µM	0.901
KHOS-NP, 10 µM	0.695
MES-SA, 0.00017 µM	0.88
MES-SA, 0.00051 µM	0.902
MES-SA, 0.00152 µM	0.864
MES-SA, 0.00457 µM	0.898
MES-SA, 0.01372 µM	0.9132
MES-SA, 0.04115 µM	0.9229
MES-SA, 0.1235 µM	0.914
MES-SA, 0.3704 µM	0.951
MES-SA, 1.111 µM	0.908
MES-SA, 3.333 µM	0.829
MES-SA, 10 µM	0.577
RD, 0.00017 µM	1.05
RD, 0.00051 µM	1.049
RD, 0.00152 µM	1.067
RD, 0.00457 µM	1.08
RD, 0.01372 µM	1.05
RD, 0.04115 µM	1.092
RD, 0.1235 µM	1.088
RD, 0.3704 µM	1.11
RD, 1.111 µM	1.04
RD, 3.333 µM	1.07
RD, 10 µM	0.984
RD-ES, 0.00017 µM	0.944
RD-ES, 0.00051 µM	0.942
RD-ES, 0.00152 µM	0.927
RD-ES, 0.00457 µM	0.926
RD-ES, 0.01372 µM	0.908
RD-ES, 0.04115 µM	0.895
RD-ES, 0.1235 µM	0.915
RD-ES, 0.3704 µM	0.889
RD-ES, 1.111 µM	0.852
RD-ES, 3.333 µM	0.849
RD-ES, 10 µM	0.748
SK-ES-1, 0.00017 µM	0.975
SK-ES-1, 0.00051 µM	0.999
SK-ES-1, 0.00152 µM	1
SK-ES-1, 0.00457 µM	1
SK-ES-1, 0.01372 µM	0.992
SK-ES-1, 0.04115 µM	1.01
SK-ES-1, 0.1235 µM	1.01
SK-ES-1, 0.3704 µM	1.02
SK-ES-1, 1.111 µM	0.995
SK-ES-1, 3.333 µM	0.906
SK-ES-1, 10 µM	0.814
SK-LMS-1, 0.00017 µM	0.928
SK-LMS-1, 0.00051 µM	0.955
SK-LMS-1, 0.00152 µM	0.972
SK-LMS-1, 0.00457 µM	0.97
SK-LMS-1, 0.01372 µM	1.06
SK-LMS-1, 0.04115 µM	1.02
SK-LMS-1, 0.1235 µM	1
SK-LMS-1, 0.3704 µM	1.05
SK-LMS-1, 1.111 µM	1.04
SK-LMS-1, 3.333 µM	0.773
SK-LMS-1, 10 µM	0.565
SW684, 0.00017 µM	1.09
SW684, 0.00051 µM	1.06
SW684, 0.00152 µM	1.09
SW684, 0.00457 µM	1.09
SW684, 0.01372 µM	1.08
SW684, 0.04115 µM	1.102
SW684, 0.1235 µM	1.16
SW684, 0.3704 µM	1.23
SW684, 1.111 µM	1.18
SW684, 3.333 µM	1.11
SW684, 10 µM	0.627
SW872, 0.00017 µM	0.966
SW872, 0.00051 µM	0.94
SW872, 0.00152 µM	0.939
SW872, 0.00457 µM	0.938
SW872, 0.01372 µM	0.937
SW872, 0.04115 µM	0.978
SW872, 0.1235 µM	0.9486
SW872, 0.3704 µM	1.01
SW872, 1.111 µM	0.991
SW872, 3.333 µM	0.974
SW872, 10 µM	0.93
SW1353, 0.00017 µM	0.946
SW1353, 0.00051 µM	0.958
SW1353, 0.00152 µM	0.936
SW1353, 0.00457 µM	0.9604
SW1353, 0.01372 µM	1.04
SW1353, 0.04115 µM	1.1
SW1353, 0.1235 µM	1.1
SW1353, 0.3704 µM	1.14
SW1353, 1.111 µM	1.11
SW1353, 3.333 µM	1.06
SW1353, 10 µM	0.953
VA-ES-BJ, 0.00017 µM	0.998
VA-ES-BJ, 0.00051 µM	0.982
VA-ES-BJ, 0.00152 µM	0.995
VA-ES-BJ, 0.00457 µM	0.99
VA-ES-BJ, 0.01372 µM	0.999
VA-ES-BJ, 0.04115 µM	1.02
VA-ES-BJ, 0.1235 µM	1.02
VA-ES-BJ, 0.3704 µM	1.03
VA-ES-BJ, 1.111 µM	1.02
VA-ES-BJ, 3.333 µM	0.9997
VA-ES-BJ, 10 µM	0.9486

CNC(=O)c1ccccc1Sc1ccc2c(/C=C/c3ccccn3)n[nH]c2c1 [Axitinib]
Details	relative viability
G401, 0.00017 µM	1.04
G401, 0.00051 µM	1.04
G401, 0.00152 µM	1.02
G401, 0.00457 µM	1.01
G401, 0.01372 µM	0.979
G401, 0.04115 µM	0.963
G401, 0.1235 µM	0.942
G401, 0.3704 µM	0.854
G401, 1.111 µM	0.806
G401, 3.333 µM	0.456
G401, 10 µM	0.0633
HT1080, 0.00017 µM	1.1
HT1080, 0.00051 µM	1.06
HT1080, 0.00152 µM	1.1
HT1080, 0.00457 µM	1.1
HT1080, 0.01372 µM	1.13
HT1080, 0.04115 µM	1.11
HT1080, 0.1235 µM	1.08
HT1080, 0.3704 µM	1
HT1080, 1.111 µM	1.04
HT1080, 3.333 µM	0.979
HT1080, 10 µM	0.388
KHOS-NP, 0.00017 µM	1.08
KHOS-NP, 0.00051 µM	1.12
KHOS-NP, 0.00152 µM	1.12
KHOS-NP, 0.00457 µM	1.12
KHOS-NP, 0.01372 µM	1.12
KHOS-NP, 0.04115 µM	1.106
KHOS-NP, 0.1235 µM	1.07
KHOS-NP, 0.3704 µM	1.01
KHOS-NP, 1.111 µM	0.986
KHOS-NP, 3.333 µM	0.827
KHOS-NP, 10 µM	0.405
MES-SA, 0.00017 µM	0.995
MES-SA, 0.00051 µM	0.9681
MES-SA, 0.00152 µM	0.978
MES-SA, 0.00457 µM	0.977
MES-SA, 0.01372 µM	0.967
MES-SA, 0.04115 µM	0.949
MES-SA, 0.1235 µM	0.951
MES-SA, 0.3704 µM	0.785
MES-SA, 1.111 µM	0.825
MES-SA, 3.333 µM	0.257
MES-SA, 10 µM	0.056
RD, 0.00017 µM	0.981
RD, 0.00051 µM	0.977
RD, 0.00152 µM	1
RD, 0.00457 µM	1.01
RD, 0.01372 µM	1.01
RD, 0.04115 µM	0.98
RD, 0.1235 µM	0.984
RD, 0.3704 µM	0.892
RD, 1.111 µM	0.874
RD, 3.333 µM	0.465
RD, 10 µM	0.183
RD-ES, 0.00017 µM	0.962
RD-ES, 0.00051 µM	0.92
RD-ES, 0.00152 µM	0.938
RD-ES, 0.00457 µM	0.947
RD-ES, 0.01372 µM	0.94
RD-ES, 0.04115 µM	0.963
RD-ES, 0.1235 µM	0.938
RD-ES, 0.3704 µM	0.871
RD-ES, 1.111 µM	0.85
RD-ES, 3.333 µM	0.729
RD-ES, 10 µM	0.0832
SK-ES-1, 0.00017 µM	0.9896
SK-ES-1, 0.00051 µM	1.06
SK-ES-1, 0.00152 µM	1.03
SK-ES-1, 0.00457 µM	1.02
SK-ES-1, 0.01372 µM	1.01
SK-ES-1, 0.04115 µM	0.969
SK-ES-1, 0.1235 µM	0.943
SK-ES-1, 0.3704 µM	0.829
SK-ES-1, 1.111 µM	0.837
SK-ES-1, 3.333 µM	0.499
SK-ES-1, 10 µM	0.0154
SK-LMS-1, 0.00017 µM	1.11
SK-LMS-1, 0.00051 µM	1.14
SK-LMS-1, 0.00152 µM	1.12
SK-LMS-1, 0.00457 µM	1.09
SK-LMS-1, 0.01372 µM	1.1
SK-LMS-1, 0.04115 µM	1.09
SK-LMS-1, 0.1235 µM	1.17
SK-LMS-1, 0.3704 µM	1.17
SK-LMS-1, 1.111 µM	1.18
SK-LMS-1, 3.333 µM	1.13
SK-LMS-1, 10 µM	0.55
SW684, 0.00017 µM	1.17
SW684, 0.00051 µM	1.17
SW684, 0.00152 µM	1.21
SW684, 0.00457 µM	1.188
SW684, 0.01372 µM	1.19
SW684, 0.04115 µM	1.15
SW684, 0.1235 µM	1.14
SW684, 0.3704 µM	1.12
SW684, 1.111 µM	1.14
SW684, 3.333 µM	0.978
SW684, 10 µM	0.493
SW872, 0.00017 µM	1.08
SW872, 0.00051 µM	1.04
SW872, 0.00152 µM	1.06
SW872, 0.00457 µM	1.08
SW872, 0.01372 µM	1.05
SW872, 0.04115 µM	1.03
SW872, 0.1235 µM	0.981
SW872, 0.3704 µM	0.902
SW872, 1.111 µM	0.779
SW872, 3.333 µM	0.511
SW872, 10 µM	0.213
SW1353, 0.00017 µM	1.09
SW1353, 0.00051 µM	1.1
SW1353, 0.00152 µM	1.05
SW1353, 0.00457 µM	1.04
SW1353, 0.01372 µM	1.04
SW1353, 0.04115 µM	1.01
SW1353, 0.1235 µM	1.02
SW1353, 0.3704 µM	0.908
SW1353, 1.111 µM	0.94
SW1353, 3.333 µM	0.789
SW1353, 10 µM	0.288
VA-ES-BJ, 0.00017 µM	1.11
VA-ES-BJ, 0.00051 µM	1.097
VA-ES-BJ, 0.00152 µM	1.11
VA-ES-BJ, 0.00457 µM	1.12
VA-ES-BJ, 0.01372 µM	1.09
VA-ES-BJ, 0.04115 µM	1.08
VA-ES-BJ, 0.1235 µM	1.05
VA-ES-BJ, 0.3704 µM	0.9867
VA-ES-BJ, 1.111 µM	0.977
VA-ES-BJ, 3.333 µM	0.61
VA-ES-BJ, 10 µM	0.263
